Test results from US6423317B1, “Method of killing protozoa” (S.S. Steiner, Inc., priority 2001, dated 2002).

How the values were obtained:
Chaos sp. [1] = assay: Co-action of hop resins with carbon dioxide; format: cell-based
Protocol: (§1) Different concentrations of the alpha and beta resins of hop were prepared in 10 ml. of medium, as identified in Table 1, and poured into plastic tissue culture flasks of 25 cm. growth area with screw caps, obtained from Falcon, Oxnard, Calif. Carbon dioxide was then bubbled through the medium in the bottles at a rapid rate for a period of 30 seconds. An average of ten organisms were added to each flask and examined directly under the stereomicroscope. The times that were taken for a 100% kill of the organisms, that is, when all of the organisms ceased any motion, were recorded in minutes and are tabulated in Tables 7 and 8.
The same tests but at greater resin concentrations were carried out on an amoeba strain, Chaos sp., and the results recorded in Table 8.

P. papillata = assay: Protozoicidal effect, time for 100% kill; format: cell-based, Polytomella papillata; conditions: observation time 24 hours
Protocol: (§2) […] protozoa had stopped moving. The observation time was 24 hours. In order to determine whether the protozoa had been killed rather than only temporarily inactivated, the organisms in hop solution were centrifuged, the supernatant removed, and the protozoa placed into fresh medium in which hop was not present. When there was no revival of the organisms, it was concluded that they were dead rather than only temporarily inactivated.

P. caudatum [2] = assay: Protozoicidal effect, time for 100% kill; format: cell-based, Paramecium caudatum; conditions: for Time of death (100% kill): observation time 24 hours
Protocol: as §2

T. pyriformis = assay: Protozoicidal effect, time for 100% kill; format: cell-based, Tetrahymena pyriformis; conditions: observation time 24 hours
Protocol: as §2

Euglena sp. = assay: Protozoicidal effect, time for 100% kill; format: cell-based; conditions: observation time 24 hours
Protocol: as §2

P. caudatum [3] = assay: Co-action of hop resins with carbon dioxide, time for 100% kill; format: cell-based, Paramecium caudatum; conditions: carbon dioxide bubbled into the medium for 30 seconds before inoculation
Protocol: as §1

Chaos sp. [4] = assay: Protozoicidal effect, time for 100% kill; format: cell-based; conditions: for Time of death (100% kill): observation time 24 hours
Protocol: (§3) The protozoicidal effect of various hop compounds was determined by preparing different concentrations of hop solution in 10 ml. of medium. The solution was poured into 6×4 multiwell dishes—3424 Mark 2 (Coster, Cambridge, Mass.). An average of 10 microorganisms was added to each well and observed under the stereomicroscope. Results were expressed as the time in minutes for a 100% kill, which was presumed when all of the
(§4) protozoa had stopped moving. The observation time was 24 hours.
(§5) In order to determine whether the protozoa had been killed rather than only temporarily inactivated, the organisms in hop solution were centrifuged, the supernatant removed, and the protozoa placed into fresh medium in which hop was not present. When there was no revival of the organisms, it was concluded that they were dead rather than only temporarily inactivated.
(§6) Tests were conducted to determine the effectiveness of the alpha and beta resins against amoebae.

Amoeba proteus = assay: Protozoicidal effect, time for 100% kill; format: cell-based; conditions: 500 μg/ml, observation time 24 hours
Protocol: as §3, §4, §5, §6

[5] = 0.2 μg/ml, listed as beta resin
[6] = 0.5 μg/ml, listed as beta resin

Q: How did the “Effectiveness in killing with prior carbon dioxide treatment” value (from here on “Effectiveness in killing”) (Chaos sp. [1]; resin 10 ug/ml, prior carbon dioxide treatment) turn out when `CC(C)=CCC1=C(O)C(C(=O)CC(C)C)=C(O)C(CC=C(C)C)(CC=C(C)C)C1=O` [Beta Resin, lupulone] was run?
A: The value was “both were effective”.

Q: What about the “Effectiveness in killing” value (Chaos sp. [1]; resin 50 ug/ml, carbon dioxide pretreatment) of the same molecule?
A: Its value is “both were effective with carbon dioxide pretreatment”.

Q: What about the “Effectiveness in killing” value (Chaos sp. [1]; resin 100 ug/ml, carbon dioxide pretreatment) of the same molecule?
A: The value was “all were most effective with pretreatment”.

Q: And the “Time of death (100% kill)” value (P. papillata; 0.05 μg/ml)?
A: Its value is “not sensitive”.

Q: And the “Time of death (100% kill)” value (P. papillata; 0.2 μg/ml)?
A: The value was 40 min.

Q: What about the “Time of death (100% kill)” value (P. papillata; [5]) of the same molecule?
A: The value was no more than 40 min.

Q: What about the “Time of death (100% kill)” value (P. papillata; 0.5 μg/ml) of the same molecule?
A: Its value is 5 min.

Q: And the “Time of death (100% kill)” value (P. papillata; 1.0 μg/ml)?
A: The value was 3.5 min.

Q: What about the “Time of death (100% kill)” value (P. papillata; 2.0 μg/ml) of the same molecule?
A: The value was 2.0 min.

Q: What about the “Time of death (100% kill)” value (P. caudatum [2]; 0.05 μg/ml) of the same molecule?
A: Its value is “not sensitive”.

Q: And the “Time for death to occur” value (P. caudatum [2]; 0.1 ug/ml)?
A: The value was “one”.

Q: What about the “Time of death (100% kill)” value (P. caudatum [2]; 0.1 μg/ml) of the same molecule?
A: The value was 60 min.

Q: What about the “Time of death (100% kill)” value (P. caudatum [2]; 0.2 μg/ml) of the same molecule?
A: Its value is 5 min.

Q: And the “Time of death (100% kill)” value (P. caudatum [2]; [5])?
A: The value was no more than 5 min.

Q: And the “Time of death (100% kill)” value (P. caudatum [2]; 0.5 μg/ml)?
A: The value was 3.5 min.

Q: What about the “Time of death (100% kill)” value (P. caudatum [2]; [6]) of the same molecule?
A: Its value is “five”.

Q: What about the “Time of death (100% kill)” value (P. caudatum [2]; 1.0 μg/ml) of the same molecule?
A: Its value is 3.0 min.

Q: What about the “Time of death (100% kill)” value (P. caudatum [2]; 2.0 μg/ml) of the same molecule?
A: The value was 2.0 min.

Q: And the “Time of death (100% kill)” value (T. pyriformis; 0.05 μg/ml)?
A: The value was “not sensitive”.

Q: What about the “Time of death (100% kill)” value (T. pyriformis; 0.2 μg/ml) of the same molecule?
A: The value was 15 min.

Q: What about the “Time of death (100% kill)” value (T. pyriformis; [5]) of the same molecule?
A: The value was no more than 15 min.

Q: And the “Time of death (100% kill)” value (T. pyriformis; 0.5 μg/ml)?
A: The value was 3 min.

Q: And the “Time of death (100% kill)” value (T. pyriformis; [6])?
A: The value was “five”.

Q: And the “Time of death (100% kill)” value (T. pyriformis; 1.0 μg/ml)?
A: The value was 1.5 min.

Q: What about the “Time of death (100% kill)” value (T. pyriformis; 2.0 μg/ml) of the same molecule?
A: Its value is 1.0 min.

Q: What about the “Time of death (100% kill)” value (T. pyriformis; 2.0 μg/ml, listed as beta resin) of the same molecule?
A: The value was “two”.

Q: And the “Time of death (100% kill)” value (Euglena sp.; 0.05 μg/ml)?
A: Its value is “not sensitive”.

Q: And the “Time of death (100% kill)” value (Euglena sp.; 0.5 μg/ml)?
A: The value was 2.5 min.

Q: What about the “Time of death (100% kill)” value (Euglena sp.; 1.0 μg/ml) of the same molecule?
A: The value was 1.5 min.

Q: What about the “Time of death (100% kill)” value (Euglena sp.; 2.0 μg/ml) of the same molecule?
A: Its value is 1.2 min.

Q: What about the “Time of death (100% kill), resin + CO2” value (P. caudatum [3]; resin 0.05 μg/ml) of the same molecule?
A: The value was 14 min.

Q: What about the “Time of death (100% kill), resin + CO2” value (P. caudatum [3]; resin 0.1 μg/ml) of the same molecule?
A: The value was 5 min.

Q: What about the “Time of death (100% kill)” value (Chaos sp. [4]; 10 μg/ml) of the same molecule?
A: Its value is “neither the alpha nor beta resins were effective alone”.

Q: And the “Time of death (100% kill)” value (Chaos sp. [4]; 50 μg/ml)?
A: Its value is 60 min.

Q: And the “Time of death (100% kill)” value (Chaos sp. [4]; 50 μg/ml, listed as beta resin)?
A: The value was “effective per se”.

Q: And the “Time of death (100% kill)” value (Chaos sp. [4]; 100 μg/ml)?
A: Its value is 30 min.

Q: What about the “Time of death (100% kill)” value (Chaos sp. [4]; 100 μg/ml, listed as beta resin) of the same molecule?
A: The value was “all were effective”.

Q: And the “Time of death (100% kill)” value (Chaos sp. [4]; 200 μg/ml)?
A: The value was 30 min.

Q: And the “Time of death (100% kill)” value (Chaos sp. [4]; 500 μg/ml)?
A: Its value is 25 min.

Q: What about the “Time of death (100% kill)” value (Amoeba proteus) of the same molecule?
A: Its value is 180 min.

Q: `O=C=O` [Carbon dioxide, carbon dioxide] was tested. Which “Time of death with carbon dioxide, without addition of hop” value (P. caudatum [3]; no hop) did it give?
A: The value was “*Carbon dioxide had been bubbled into the medium for 30 seconds previous to inoculation and death without addition of hop occurred between 40-50 minutes”.

Q: How did the “Time of death (100% kill)” value (P. caudatum [2]; 0.05 μg/ml) turn out when `COc1cc(O)c(CC=C(C)C)c(O)c1C(=O)/C=C/c1ccc(O)cc1` [Xanthohumol, xanthohumol] was run?
A: The value was 10 min.

Q: And the “Time of death (100% kill)” value (P. caudatum [2]; 0.05 μg/ml, listed as xanthohumol)?
A: The value was “ten”.

Q: What about the “Time of death (100% kill)” value (P. caudatum [2]; 0.1 μg/ml) of the same molecule?
A: The value was 5 min.

Q: What about the “Time of death (100% kill)” value (P. caudatum [2]; 1.0 μg/ml) of the same molecule?
A: The value was 2.5 min.

Q: And the “Concentration effective in killing” value (Chaos sp. [4])?
A: Its value is no less than 5 µg/mL.

Q: And the “Time of death (100% kill)” value (Chaos sp. [4]; 5.0 μg/ml)?
A: Its value is 15 min.

Q: What about the “Time of death (100% kill)” value (Chaos sp. [4]; 10 μg/ml) of the same molecule?
A: The value was 11 min.
